# Results as given in patent US10556914B2, “Substituted isoxazolopyridazinones and isothiazolopyridazinones and methods of use” (AbbVie Inc., priority 2015, dated 2020).
# pEC50: −log10 of the molar value.
# Molecular target: GABA-B receptor (Rattus norvegicus (Rat), UniProt O88871+Q9Z0U4)
# Test: [35S]GTPgS Binding Assay (rat brain cortex membranes, native receptor)
# Type: biochemical
# Conditions: rat cortical membranes; in the presence of 1 μM GABA (EC25); basal binding 0%, maximal binding (1 mM GABA) 100%
# GABA-B receptor, sequence (Q9Z0U4 17-960): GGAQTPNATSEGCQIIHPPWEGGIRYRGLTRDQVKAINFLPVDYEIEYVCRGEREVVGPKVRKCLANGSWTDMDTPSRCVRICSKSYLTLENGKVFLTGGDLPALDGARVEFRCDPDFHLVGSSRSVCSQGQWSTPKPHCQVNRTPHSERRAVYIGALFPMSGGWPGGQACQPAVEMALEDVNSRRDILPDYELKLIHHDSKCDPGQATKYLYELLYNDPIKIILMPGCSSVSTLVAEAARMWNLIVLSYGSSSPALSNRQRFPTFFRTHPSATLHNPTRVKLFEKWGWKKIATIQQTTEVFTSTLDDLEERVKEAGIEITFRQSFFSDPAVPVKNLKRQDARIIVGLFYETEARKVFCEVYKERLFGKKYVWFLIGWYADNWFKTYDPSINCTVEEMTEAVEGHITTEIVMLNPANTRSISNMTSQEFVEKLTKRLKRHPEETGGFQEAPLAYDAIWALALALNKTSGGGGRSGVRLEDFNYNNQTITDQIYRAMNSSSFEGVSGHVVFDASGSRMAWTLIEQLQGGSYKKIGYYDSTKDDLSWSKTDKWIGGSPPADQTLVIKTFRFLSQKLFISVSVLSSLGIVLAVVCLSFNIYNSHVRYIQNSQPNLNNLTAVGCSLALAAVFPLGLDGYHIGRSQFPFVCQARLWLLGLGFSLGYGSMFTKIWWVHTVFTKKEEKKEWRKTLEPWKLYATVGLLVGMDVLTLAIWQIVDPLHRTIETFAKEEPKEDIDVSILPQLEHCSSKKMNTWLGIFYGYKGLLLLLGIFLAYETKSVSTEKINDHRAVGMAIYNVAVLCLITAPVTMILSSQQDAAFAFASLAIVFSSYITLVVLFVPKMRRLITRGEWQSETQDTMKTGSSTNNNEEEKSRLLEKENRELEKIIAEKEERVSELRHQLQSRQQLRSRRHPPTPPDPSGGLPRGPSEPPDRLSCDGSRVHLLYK
# GABA-B receptor, sequence (O88871 41-940): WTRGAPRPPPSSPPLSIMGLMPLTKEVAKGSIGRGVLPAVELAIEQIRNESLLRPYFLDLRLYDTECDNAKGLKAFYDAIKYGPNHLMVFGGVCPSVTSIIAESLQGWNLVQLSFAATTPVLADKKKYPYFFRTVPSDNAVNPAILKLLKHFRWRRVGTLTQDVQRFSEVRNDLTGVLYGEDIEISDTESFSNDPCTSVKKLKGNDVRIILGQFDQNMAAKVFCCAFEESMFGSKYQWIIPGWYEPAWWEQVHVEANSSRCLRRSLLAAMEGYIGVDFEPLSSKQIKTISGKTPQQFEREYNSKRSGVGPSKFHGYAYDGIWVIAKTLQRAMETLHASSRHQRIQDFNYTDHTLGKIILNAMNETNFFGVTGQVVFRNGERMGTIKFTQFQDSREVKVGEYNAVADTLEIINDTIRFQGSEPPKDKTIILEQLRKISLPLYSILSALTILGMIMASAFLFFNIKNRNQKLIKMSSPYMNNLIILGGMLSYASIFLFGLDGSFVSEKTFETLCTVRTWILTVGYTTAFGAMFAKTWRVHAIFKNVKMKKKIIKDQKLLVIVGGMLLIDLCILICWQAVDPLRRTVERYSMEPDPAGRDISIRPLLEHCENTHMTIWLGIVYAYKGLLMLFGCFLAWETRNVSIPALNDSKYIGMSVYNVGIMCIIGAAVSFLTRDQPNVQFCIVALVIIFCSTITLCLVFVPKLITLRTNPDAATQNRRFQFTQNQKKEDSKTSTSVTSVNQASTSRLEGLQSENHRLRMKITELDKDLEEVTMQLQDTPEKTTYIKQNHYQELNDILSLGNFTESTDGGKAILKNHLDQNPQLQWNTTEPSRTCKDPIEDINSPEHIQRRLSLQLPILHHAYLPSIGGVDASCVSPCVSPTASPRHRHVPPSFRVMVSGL
row,pEC50,Structure (SMILES)
1,6.36,"COc1ccc(NC(C)=O)cc1-c1nn(C(C)c2ccc(C(F)(F)F)cc2)c(=O)c2c(C)noc12 (stereo not shown) [Example 103, N-[4-methoxy-3-(3-methyl-4-oxo-5-{(1)-1-[4-(trifluoromethyl)phenyl]ethyl}-4,5-dihydro[1,2]oxazolo[4,5-d]pyridazin-7-yl)phenyl]acetamide]"
2,5.80,"Cc1noc2c(-c3ccc(F)cc3)nn(Cc3ccc(C(F)(F)F)cc3)c(=O)c12 [Example 19, 7-(4-fluorophenyl)-3-methyl-5-[4-(trifluoromethyl)benzyl][1,2]oxazolo[4,5-d]pyridazin-4(5H)-one]"
3,5.20,"CC(=O)Nc1cccc(-c2nn(C(C)c3ccc(Cl)cc3)c(=O)c3c(C)noc23)c1 (stereo not shown) [Example 78, N-(3-{5-[1-(4-chlorophenyl)ethyl]-3-methyl-4-oxo-4,5-dihydro[1,2]oxazolo[4,5-d]pyridazin-7-yl}phenyl)acetamide]"
4,5.73,"Cc1noc2c(-c3cccc(NS(C)(=O)=O)c3)nn(C(C)c3ccc(Cl)cc3)c(=O)c12 (stereo not shown) [Example 24, N-(3-{5-[1-(4-chlorophenyl)ethyl]-3-methyl-4-oxo-4,5-dihydro[1,2]oxazolo[4,5-d]pyridazin-7-yl}phenyl)methanesulfonamide]"
5,6.07,"Cc1noc2c(-c3cnc4cc[nH]c4c3)nn(C(C)c3ccc(Cl)cc3)c(=O)c12 (stereo not shown) [Example 116, 5-[1-(4-chlorophenyl)ethyl]-3-methyl-7-(1H-pyrrolo[3,2-b]pyridin-6-yl)[1,2]oxazolo[4,5-d]pyridazin-4(5H)-one]"
6,6.98,"COc1ccc(NC(C)=O)cc1-c1nn(C(C)c2ccc(Cl)cc2)c(=O)c2c(C)noc12 (stereo not shown) [Example 39, N-(3-{5-[1-(4-chlorophenyl)ethy]-3-methyl-4-oxo-4,5-dihydro[1,2]oxazolo[4,5-d]pyridazin-7-yl}-4-methoxyphenyl)acetamide]"
7,5.17,"Cc1noc2c(-c3cccnc3)nn(Cc3ccc(Cl)cc3)c(=O)c12 [Example 120, 5-(4-chlorobenzyl)-3-methyl-7-(pyridin-3-yl)[1,2]oxazolo[4,5-d]pyridazin-4(5H)-one]"
8,6.19,"COc1ccc(NC(C)=O)cc1-c1nn(Cc2ccc(C(F)(F)F)cc2)c(=O)c2c(C)noc12 [Example 64, N-(4-methoxy-3-{3-methyl-4-oxo-5-[4-(trifluoromethyl)benzyl]-4,5-dihydro[1,2]oxazolo[4,5-d]pyridazin-7-yl}phenyl)acetamide]"
9,5.48,"CC(=O)Nc1cccc(-c2nn(Cc3ccc(C(F)(F)F)cc3)c(=O)c3c(C)noc23)c1 [Example 57, N-(3-{3-methyl-4-oxo-5-[4-(trifluoromethyl)benzyl]-4,5-dihydro[1,2]oxazolo[4,5-d]pyridazin-7-yl}phenyl)acetamide]"
10,5.55,"COc1ccc(Cn2nc(-c3ccc(F)cc3)c3onc(C)c3c2=O)cc1C(F)(F)F [Example 66, 7-(4-fluorophenyl)-5-[4-methoxy-3-(trifluoromethyl)benzyl]-3-methyl[1,2]oxazolo[4,5-d]pyridazin-4(5H)-one]"
